Assay results reported in patent US20140024662A1, “COMPOUNDS, SCREENS, AND METHODS OF TREATMENT” (Shanghai Institute of Organic Chemistry, priority 2006, published 2014).
Entries after “also recorded” stand apart in the source; their conditions may differ. Like-named read-outs stand apart in the source and are kept apart here.

System: FADD-deficient Jurkat cells
Assay: necroptosis assay: FADD-deficient Jurkat cells treated with TNFα, cell viability
Type: cell-based, human
Conditions: for activity in the necroptosis assay, in words / Max Prot: FADD-deficient Jurkat cells treated with TNFα; for EC50: effective concentration for half-maximum response, inhibition of necroptosis in FADD-deficient Jurkat cells treated with TNFα; for Max Prot: max viability obtained in the presence of a compound; call rule not given here
Excerpt: Herein we describe the structure activity analysis of Nec-5 analogs.

| Structure (SMILES) | activity in the necroptosis assay, in words | EC50 | EC50 (read-out: EC50) | Max Prot |
| --- | --- | --- | --- | --- |
| COc1ccc(-n2c(S(C)(=O)=O)nc3sc4c(c3c2=O)CCCC4)cc1 [Compound 31] | complete loss of activity | inactive |  |  |
| N#CCSc1nc2sc3c(c2c(=O)n1-c1ccccc1)CCCC3 [Compound 32] | inactive | inactive |  |  |
| COc1ccccc1-n1c(SCC#N)nc2sc3c(c2c1=O)CCCC3 [Compound 33] |  |  | 17800 nM | 51.2% |
| COc1cccc(-n2c(SCC#N)nc3sc4c(c3c2=O)CCCC4)c1 [Compound 34] |  |  | 1460 nM | 87.7% |
| CCOc1ccc(-n2c(SCC#N)nc3sc4c(c3c2=O)CCCC4)cc1 [Compound 35] | retained some activity; also recorded: showed significant higher activity compared to compound (154) |  | 550 nM | 83.8% |
| N#CCSc1nc2sc3c(c2c(=O)n1-c1ccc(OCc2ccccc2)cc1)CCCC3 [Compound 36] |  | inactive |  |  |
| Cc1ccccc1-n1c(SCC#N)nc2sc3c(c2c1=O)CCCC3 [Compound 37] |  | inactive |  |  |
| Cc1ccc(-n2c(SCC#N)nc3sc4c(c3c2=O)CCCC4)cc1 [Compound 38] | retained some activity |  | 1800 nM | 48.6% |
| N#CCSc1nc2sc3c(c2c(=O)n1-c1ccc(F)cc1)CCCC3 [Compound 39] | retained significant activity; also recorded: showed substantial activity; also recorded: decreased activity |  | 240 nM | 85.1% |
| N#CCSc1nc2sc3c(c2c(=O)n1-c1cccc(Cl)c1)CCCC3 [Compound 40] |  |  | 5100 nM | 66.9% |
| N#CCSc1nc2sc3c(c2c(=O)n1-c1ccc(Cl)cc1)CCCC3 [Compound 41] | activity significantly decreased |  | 8500 nM | 55.0% |
| N#CCSc1nc2sc3c(c2c(=O)n1-c1ccc(Br)cc1)CCCC3 [Compound 42] | activity significantly decreased | inactive |  |  |
| Cc1ccc(-n2c(SCC#N)nc3sc4c(c3c2=O)CCCC4)cc1C [Compound 43] |  |  | 16700 nM | 45.0% |
| N#CCSc1nc2sc3c(c2c(=O)n1-c1ccc(Cl)c(Cl)c1)CCCC3 [Compound 44] |  |  | 5700 nM | 39.0% |
| N#CCSc1nc2sc3c(c2c(=O)n1-c1ccc(F)c(F)c1)CCCC3 [Compound 45] |  | inactive |  |  |
| COc1ccc(-n2c(SCC#N)nc3sc4c(c3c2=O)CCCC4)c(OC)c1 [Compound 46] | eliminated activity | inactive |  |  |
| COc1ccc(-n2c(SCC#N)nc3sc4c(c3c2=O)CCCC4)cc1OC [Compound 47] |  |  | 5700 nM | 57.0% |
| N#CCCSc1nc2sc3c(c2c(=O)n1-c1ccc2c(c1)OCO2)CCCC3 [Compound 48, 3-(3′,4′)-methylene-dioxyphenyl-5,6-tetramethylenothieno[2,3-d]pyrimidin-4-one-2-mercaptoethylcyanide] | showed good activity; also recorded: showed substantial activity; also recorded: showed significant activity |  | 890 nM | 100% |
| CSc1ccc(-n2c(SCC#N)nc3sc4c(c3c2=O)CCCC4)cc1 [Compound 49] |  |  | 2330 nM | 70.0% |
| Cc1cc(Cl)ccc1-n1c(SCC#N)nc2sc3c(c2c1=O)CCCC3 [Compound 50] |  | inactive |  |  |
| N#CCSc1nc2sc3c(c2c(=O)n1-c1ccc(OC(F)(F)F)cc1)CCCC3 [Compound 51] | loss of activity | inactive |  |  |

| Structure (SMILES) | activity in the necroptosis assay, in words | EC50 | EC50 (read-out: EC50) | Max Prot |
| --- | --- | --- | --- | --- |
| CSc1nc2sc3c(c2c(=O)n1-c1ccc(OCc2ccccc2)cc1)CCCC3 [Compound 52] |  | inactive |  |  |
| CSc1nc2sc3c(c2c(=O)n1-c1ccc(F)cc1)CCCC3 [Compound 53] | showed some activity |  | 1570 nM | 61.2% |
| CSc1nc2sc3c(c2c(=O)n1-c1ccc(Br)cc1)CCCC3 [Compound 54] |  | inactive |  |  |
| CSc1nc2sc3c(c2c(=O)n1-c1ccc(C)c(C)c1)CCCC3 [Compound 55] |  |  | 16700 nM | 38.0% |
| CSc1nc2sc3c(c2c(=O)n1-c1ccc(Cl)c(Cl)c1)CCCC3 [Compound 56] |  | inactive |  |  |
| COc1ccc(-n2c(SC)nc3sc4c(c3c2=O)CCCC4)c(OC)c1 [Compound 57] |  | inactive |  |  |
| COc1ccc(-n2c(SC)nc3sc4c(c3c2=O)CCCC4)cc1OC [Compound 58] | showed some activity |  | 16700 nM | 54.5% |
| CSc1nc2sc3c(c2c(=O)n1-c1ccc2c(c1)OCO2)CCCC3 [Compound 59] |  | inactive |  |  |
| CSc1cccc(-n2c(SC)nc3sc4c(c3c2=O)CCCC4)c1 [Compound 60] |  | inactive |  |  |
| CSc1nc2sc3c(c2c(=O)n1-c1ccc(Cl)cc1C)CCCC3 [Compound 61] |  | inactive |  |  |
| CSc1nc2sc3c(c2c(=O)n1-c1ccc(OC(F)(F)F)cc1)CCCC3 [Compound 62] |  | inactive |  |  |
| COc1ccc(-n2c(SCC#N)nc3sc(C)cc3c2=O)cc1 [Compound 64] |  | inactive |  |  |
| CCc1cc2c(=O)n(-c3ccc(OC)cc3)c(SCC#N)nc2s1 [Compound 65] |  | inactive |  |  |
| COc1ccc(-n2c(SCC#N)nc3scc(C)c3c2=O)cc1 [Compound 66] |  | inactive |  |  |
| COc1ccc(-n2c(SCC#N)nc3sc(C)c(C)c3c2=O)cc1 [Compound 67] | a high degree of activity is retained; also recorded: showed substantial activity; also recorded: showed significant higher activity compared to compound (154) |  | 450 nM | 100% |
| CCc1sc2nc(SCC#N)n(-c3ccc(OC)cc3)c(=O)c2c1C [Compound 68] |  |  | 5260 nM | 86.8% |
| CCCc1sc2nc(SCC#N)n(-c3ccc(OC)cc3)c(=O)c2c1C [Compound 69] | inactive | inactive |  |  |
| COc1ccc(-n2c(SCC#N)nc3sc(C(C)C)c(C)c3c2=O)cc1 [Compound 70] | inactive | inactive |  |  |
| CCCCCCCCCCCCCCc1sc2nc(SCC#N)n(-c3ccc(OC)cc3)c(=O)c2c1C [Compound 71] |  | inactive |  |  |
| CCc1c(C)sc2nc(SCC#N)n(-c3ccc(OC)cc3)c(=O)c12 [Compound 72] | preserved activity to a significant extent |  | 1080 nM | 100% |
| COc1ccc(-n2c(SCC#N)nc3sc4c(c3c2=O)CCC4)cc1 [Compound 73] | retained most of the activity; also recorded: showed activity; also recorded: exhibited a certain degree of activity |  | 450 nM | 100% |

| Structure (SMILES) | activity in the necroptosis assay, in words | EC50 | EC50 (read-out: EC50) | Max Prot |
| --- | --- | --- | --- | --- |
| COc1ccc(-n2c(SCC#N)nc3sc4c(c3c2=O)CCCCC4)cc1 [Compound 74] | less active; also recorded: exhibited a certain degree of activity |  | 960 nM | 83% |
| COc1ccc(-n2c(SCC#N)nc3sc4ccccc4c3c2=O)cc1 [Compound 76] | retained most of the activity; also recorded: showed substantial activity; also recorded: showed good activity; also recorded: potent inhibitor; also recorded: exhibited a certain degree of activity |  | 180 nM | 83.3% |
| CCN1CCc2c(sc3nc(SCC#N)n(-c4ccc(OC)cc4)c(=O)c23)C1 [Compound 77] | essentially inactive | inactive |  |  |
| COc1ccc(-n2c(SCC#N)nc3sc4c(c3c2=O)CCN(C(C)C)C4)cc1 [Compound 78] | essentially inactive | inactive |  |  |
| COc1ccc(-n2c(SC)nc3sccc3c2=O)cc1 [Compound 79] |  | inactive |  |  |
| COc1ccc(-n2c(SC)nc3scc(C)c3c2=O)cc1 [Compound 80] |  | inactive |  |  |
| COc1ccc(-n2c(SC)nc3sc(C)c(C)c3c2=O)cc1 [Compound 81] |  | inactive |  |  |
| CCc1c(C)sc2nc(SC)n(-c3ccc(OC)cc3)c(=O)c12 [Compound 82] |  | inactive |  |  |
| CCc1sc2nc(SC)n(-c3ccc(OC)cc3)c(=O)c2c1C [Compound 83] |  | inactive |  |  |
| CCCc1sc2nc(SC)n(-c3ccc(OC)cc3)c(=O)c2c1C [Compound 84] |  | inactive |  |  |
| COc1ccc(-n2c(SC)nc3sc(C(C)C)c(C)c3c2=O)cc1 [Compound 85] |  | inactive |  |  |
| CCCCCCCCCCCCCCc1sc2nc(SC)n(-c3ccc(OC)cc3)c(=O)c2c1C [Compound 86] |  | inactive |  |  |
| COc1ccc(-n2c(SC)nc3sc4c(c3c2=O)CCC4)cc1 [Compound 87] | displayed higher activity than each change separately enacted |  | 240 nM | 97.0% |
| COc1ccc(-n2c(SC)nc3sc4c(c3c2=O)CCCCC4)cc1 [Compound 88] | lack of activity | inactive |  |  |
| COc1ccc(-n2c(SC)nc3sc4ccccc4c3c2=O)cc1 [Compound 90] | potent inhibitor |  | 240 nM | 77% |
| CCN1CCc2c(sc3nc(SC)n(-c4ccc(OC)cc4)c(=O)c23)C1 [Compound 91] |  | inactive |  |  |
| COc1ccc(-n2c(SC)nc3sc4c(c3c2=O)CCN(C(C)C)C4)cc1 [Compound 92] |  | inactive |  |  |
| CCSc1nc2sc3c(c2c(=O)n1-c1ccc(OC)cc1)CCC3 [Compound 93] |  | inactive |  |  |
| CCCSc1nc2sc3c(c2c(=O)n1-c1ccc(OC)cc1)CCC3 [Compound 94] |  | inactive |  |  |
| CCCCSc1nc2sc3c(c2c(=O)n1-c1ccc(OC)cc1)CCC3 [Compound 95] |  | inactive |  |  |
